Experimental data reported in US20240317689A1, “POTASSIUM CHANNEL MODULATOR, COMPOSITION AND APPLICATION” (NEUSHEN THERAPEUTICS (SHANGHAI) CO., LTD, priority 2021, published 2024).

Target: T1, KCNQ2/3 potassium ion channel (Homo sapiens, UniProt O43525+O43526)
T1 construct: expressed in transfected cells; host or cells: CHO cells (hKCNQ-CHO)
Assay: KCNQ2/3 potassium ion channel activation assay (whole-cell patch clamp, hKCNQ-CHO cells)
Format: cell-based
Settings: test concentration 0.05 μM, read-out: Enhancment % (current enhancement multiple)
Procedure: Example 64: KCNQ2/3 Potassium Ion Channel Activation Assay
hKCNQ-CHO cells were cultured at 37° C. in a humidified environment of 5% CO2.
• 2.1. Extracellular fluid (mM): NaCl 145, KCl 4, CaCl2 2, MgCl2 1, Glucose 10, HEPES 10. The pH value of the extracellular fluid was adjusted to 7.4 with NaOH, and the osmotic pressure was adjusted to about 295 mOsm. • 2.2. Intracellular fluid (mM (mmol/L)): KOH 31.25, KCl 120, EGTA 10, MgCl2 1.75, CaCl2 5.374, HEPES 10, Na-ATP 4. The pH value of the intracellular fluid was adjusted to 7.4 with HCl, and the osmotic pressure was adjusted to about 285 mOsm. • 2.3. The extracellular fluid should be prepared once a week, and the intracellular fluid should be stored at −20° C. after preparation.
The model positive reference compound Retigabine (RTG) was dissolved with 100% DMSO and configured as a 10 mM working solution. The test compounds were dissolved with 100% DMSO and configured as a 10 mM working solution. The final concentration of DMSO in the test solution should be less than 0.3%.
Whole-cell patch clamp was performed at room temperature. The electrical signals recorded with the EPC 10 USB amplifier (HEKA Elektronik, Germany) were filtered by a 3 kHz low-pass filter, and finally recorded in PatchMaster 2×90.5 software (HEKA Elektronik, Germany). At this step, the quality control standard was that the cell high-resistance sealing was greater than 500 MOhms, and the detection current was greater than 0.4 nA.
The recording electrodes were pulled out and polished with a vertical puller (NARISHIGE PC-10, Japan) using a borosilicate glass capillary (GC150tF-10, Harvard Apparatus Co., UK). At this step, the quality control standard was that the electrode resistance was between 2 MΩ and 5 MΩ.
During the recording process of the whole-cell patch clamp, a continuous perfusion system (BT100-2J, LongerPump, China) was used to continuously perfuse the extracellular fluid. The perfusion system was installed on the stage of an upright microscope (FN-S2N, Nikon, Japan), and the perfusion head was manually positioned under the microscope.
The voltage command for detecting the amplitude of hKCNQ current was as follows: the cell stepped from the clamping potential of −80 mV to −30 mV, and held for 1500 ms; and then the clamping voltage was lowered to −120 my and held for 500 ms; finally, the voltage returned to the clamping potential of −80 mV. The detection voltage command was repeated every 15,000 milliseconds, and the command was continuously executed during the compound test. The quality control standard for compound action stability was the current amplitude under 5 consecutive voltage commands, and the coefficient of variation of the current amplitude was <5%.
Data analysis was performed using PatchMaster 2×90.5 software (HEKA Elektronik, Germany) and Excel 2013 (Microsoft, USA) software. For each cell's patch clamp recording, the amplitude of the hKCNQ channel current (Itest) corresponding to the test compound concentration should be obtained. The enhanced channel current was obtained by subtracting the cell's original channel current (Icontrol) from Itest and dividing by Icontrol to obtain the current enhancement multiple. That is, the current enhancement multiple (Enhancment %)=(Itest −Icontrol)/Icontrol[…].

activation at 0.05 µM | SMILES
< 50% | Cc1cc(N2CCCc3cc(OC(F)F)ccc3C2)cc(C)c1NC(=O)CC(C)(C)C [Compound 005, N-(4-(7-(difluoromethoxy)-1,3,4,5-tetrahydro-2H-benzo[c]azepin-2-yl)-2,6-dimethylphenyl)-3,3-dimethylbutanamide]
< 50% | Cc1cc(N2CCC(C)(C)c3ccccc3C2)cc(C)c1NC(=O)CC(C)(C)C [Compound 017, N-(4-(5,5-dimethyl-1,3,4,5-tetrahydro-2H-benzo[c]azepin-2-yl)-2,6-dimethylphenyl)-3,3-dimethylbutanamide]
50 to 100% | COc1ccc2c(c1)CCCN(c1cc(C)c(NC(=O)CC(C)(C)C)c(C)c1)C2 [Compound 001, N-(4-(7-methoxy-1,3,4,5-tetrahydro-2H-benzo[c]azepin-2-yl)-2,6-dimethylphenyl)-3,3-dimethylbutanamide]
< 50% | Cc1cc(N2CC=Cc3cc(F)ccc3C2)cc(C)c1NC(=O)CC(C)(C)C [Compound 027, N-(4-(7-fluoro-1,3-dihydro-2H-benzo[c]azepin-2-yl)-2,6-dimethylphenyl)-3,3-dimethylbutanamide]

SMILES | activation at 0.05 µM
Cc1cc(N2CCCc3cc(OC4CCC4)ccc3C2)cc(C)c1NC(=O)CC(C)(C)C [Compound 010, N-(4-(7-cyclobutoxy-1,3,4,5-tetrahydro-2H-benzo[c]azepin-2-yl)-2,6-dimethylphenyl)-3,3-dimethylbutanamide] | > 100%

Same assay, conditions: test concentration 3 μM, read-out: Enhancment % (current enhancement multiple)

SMILES | activation at 3 µM
Cc1cc(N2CCCc3cc(OC4CCCCC4)ccc3C2)cc(C)c1NC(=O)CC(C)(C)C [Compound 012, N-(4-(7-(cyclohexyloxy)-1,3,4,5-tetrahydro-2H-benzo[c]azepin-2-yl)-2,6-dimethylphenyl)-3,3-dimethylbutanamide] | > 100%
CC[C@H](C)Oc1cc2c(cc1F)CN(c1cc(C)c(NC(=O)CC(C)(C)C)c(C)c1)CCC2 [Compound 040, (S)—N-(4-(7-(sec-butoxy)-8-fluoro-1,3,4,5-tetrahydro-2H-benzo[c]azepin-2-yl)-2,6-dimethylphenyl)-3,3-dimethylbutanamide] | > 100%
CCC(C)Oc1cc2c(cc1F)CN(c1cc(C)c(NC(=O)CC(C)(C)C)c(C)c1)CCC2 (stereo not drawn) [Compound 039, N-(4-(7-(sec-butoxy)-8-fluoro-1,3,4,5-tetrahydro-2H-benzo[c]azepin-2-yl)-2,6-dimethylphenyl)-3,3-dimethylbutanamide] | > 100%
Cc1cc(N2CCC3(CC3)c3cc(F)ccc3C2)cc(C)c1NC(=O)CC(C)(C)C [Compound 022, N-(4-(7-fluoro-3,4-dihydrospiro[benzo[c]azepine-5,1′-cyclopropan]-2(1H)-yl)-2,6-dimethylphenyl)-3,3-dimethylbutanamide] | 50 to 100%
Cc1cc(N2CCCc3cc(OC4CC4)ccc3C2)cc(C)c1NC(=O)CC(C)(C)C [Compound 009, N-(4-(7-cyclopropoxy-1,3,4,5-tetrahydro-2H-benzo[c]azepin-2-yl)-2,6-dimethylphenyl)-3,3-dimethylbutanamide] | > 100%
Cc1cc(N2CCCc3cc(OC(F)F)ccc3C2)cc(C)c1NC(=O)CC(C)(C)C [Compound 005, N-(4-(7-(difluoromethoxy)-1,3,4,5-tetrahydro-2H-benzo[c]azepin-2-yl)-2,6-dimethylphenyl)-3,3-dimethylbutanamide] | > 100%
Cc1cc(N2CCCc3cc(OCCCCF)ccc3C2)cc(C)c1NC(=O)CC(C)(C)C [Compound 063, N-(4-(7-(4-fluorobutoxy)-1,3,4,5-tetrahydro-2H-benzo[c]azepin-2-yl)-2,6-dimethylphenyl)-3,3-dimethylbutanamide] | > 100%
Cc1cc(N2CCNc3cc(F)ccc3C2)cc(C)c1NC(=O)CC(C)(C)C [Compound 023, N-(4-(8-fluoro-1,2,3,5-tetrahydro-4H-benzo[e][1,4]diazepin-4-yl)-2,6-dimethylphenyl)-3,3-dimethylbutanamide] | > 100%
Cc1cc(N2CCC(C)(C)c3ccccc3C2)cc(C)c1NC(=O)CC(C)(C)C [Compound 017, N-(4-(5,5-dimethyl-1,3,4,5-tetrahydro-2H-benzo[c]azepin-2-yl)-2,6-dimethylphenyl)-3,3-dimethylbutanamide] | 50 to 100%
Cc1cc(N2CCCc3cc(OC4CCC4)ccc3C2)cc(C)c1NC(=O)CC(C)(C)C [Compound 010, N-(4-(7-cyclobutoxy-1,3,4,5-tetrahydro-2H-benzo[c]azepin-2-yl)-2,6-dimethylphenyl)-3,3-dimethylbutanamide] | > 100%
COc1ccc2c(c1)CCCN(c1cc(C)c(NC(=O)CC(C)(C)C)c(C)c1)C2 [Compound 001, N-(4-(7-methoxy-1,3,4,5-tetrahydro-2H-benzo[c]azepin-2-yl)-2,6-dimethylphenyl)-3,3-dimethylbutanamide] | 50 to 100%
Cc1cc(N2CC=Cc3cc(F)ccc3C2)cc(C)c1NC(=O)CC(C)(C)C [Compound 027, N-(4-(7-fluoro-1,3-dihydro-2H-benzo[c]azepin-2-yl)-2,6-dimethylphenyl)-3,3-dimethylbutanamide] | > 100%
CC[C@@H](C)Oc1cc2c(cc1F)CN(c1cc(C)c(NC(=O)CC(C)(C)C)c(C)c1)CCC2 [Compound 041, (R)—N-(4-(7-(sec-butoxy)-8-fluoro-1,3,4,5-tetrahydro-2H-benzo[c]azepin-2-yl)-2,6-dimethylphenyl)-3,3-dimethylbutanamide] | > 100%

The remaining lines, values ahead:

activation at 3 µM | SMILES
> 100% | Cc1cc(N2CCCc3cc(O[C@H](C)C(F)(F)F)c(F)cc3C2)cc(C)c1NC(=O)CC(C)(C)C [Compound 037, (R)—N-(4-(8-fluoro-7-((1,1,1-trifluoropropan-2-yl)oxy)-1,3,4,5-tetrahydro-2H-benzo[c]azepin-2-yl)-2,6-dimethylphenyl)-3,3-dimethylbutanamide]
> 100% | Cc1cc(N2CCCc3cc(OCCCC(F)(F)C(F)(F)F)ccc3C2)cc(C)c1NC(=O)CC(C)(C)C [Compound 061, N-(2,6-dimethyl-4-(7-((4,4,5,5,5-pentafluoropentyl)oxy)-1,3,4,5-tetrahydro-2H-benzo[c]azepin-2-yl)phenyl)-3,3-dimethylbutanamide]
50 to 100% | Cc1c(NC(=O)CC(C)(C)C)ccc(N2CCCc3cc(F)ccc3C2)c1F [Compound 029, N-(3-fluoro-4-(7-fluoro-1,3,4,5-tetrahydro-2H-benzo[c]azepin-2-yl)-2-methylphenyl)-3,3-dimethylbutanamide]
> 100% | Cc1cc(N2CCCc3cc(F)c(F)cc3C2)c(Cl)c(C)c1NC(=O)CC(C)(C)C [Compound 048, N-(3-chloro-4-(7,8-difluoro-1,3,4,5-tetrahydro-2H-benzo[c]azepin-2-yl)-2,6-dimethylphenyl)-3,3-dimethylbutanamide]
> 100% | Cc1cc(N2CC=Cc3cc(F)c(F)cc3C2)cc(C)c1NC(=O)CC(C)(C)C [Compound 046, N-(4-(7,8-difluoro-1,3-dihydro-2H-benzo[c]azepin-2-yl)-2,6-dimethylphenyl)-3,3-dimethylbutanamide]
> 100% | COc1cc2c(cc1F)CN(c1cc(C)c(NC(=O)CC(C)(C)C)c(C)c1)CCC2 [Compound 038, N-(4-(8-fluoro-7-methoxy-1,3,4,5-tetrahydro-2H-benzo[c]azepin-2-yl)-2,6-dimethylphenyl)-3,3-dimethylbutanamide]
> 100% | Cc1cc(N2CCCc3cc(OCC4(C(F)(F)F)CC4)ccc3C2)cc(C)c1NC(=O)CC(C)(C)C [Compound 054, N-(2,6-dimethyl-4-(7-((1-(trifluoromethyl)cyclopropyl)methoxy)-1,3,4,5-tetrahydro-2H-benzo[c]azepin-2-yl)phenyl)-3,3-dimethylbutanamide]
> 100% | Cc1cc(N2CCCc3cc(OCC(F)(F)C(F)F)ccc3C2)cc(C)c1NC(=O)CC(C)(C)C [Compound 057, N-(2,6-dimethyl-4-(7-(2,2,3,3-tetrafluoropropoxy)-1,3,4,5-tetrahydro-2H-benzo[c]azepin-2-yl)phenyl)-3,3-dimethylbutanamide]
> 100% | Cc1cc(N2CCCc3cc(F)ccc3C2)c(Cl)c(C)c1NC(=O)CC(C)(C)C [Compound 031, N-(3-chloro-4-(7-fluoro-1,3,4,5-tetrahydro-2H-benzo[c]azepin-2-yl)-2,6-dimethylphenyl)-3,3-dimethylbutanamide]
> 100% | Cc1cc(N2CCCc3cc(OCCC(F)(F)F)ccc3C2)cc(C)c1NC(=O)CC(C)(C)C [Compound 058, N-(2,6-dimethyl-4-(7-(3,3,3-trifluoropropoxy)-1,3,4,5-tetrahydro-2H-benzo[c]azepin-2-yl)phenyl)-3,3-dimethylbutanamide]
> 100% | Cc1cc(N2CCCc3cc(OC(C(F)(F)F)C(F)(F)F)ccc3C2)cc(C)c1NC(=O)CC(C)(C)C [Compound 055, N-(4-(7-((1,1,1,3,3,3-hexafluoropropan-2-yl)oxy)-1,3,4,5-tetrahydro-2H-benzo[c]azepin-2-yl)-2,6-dimethylphenyl)-3,3-dimethylbutanamide]
50 to 100% | Cc1cc(N2CCCc3cc(F)ccc3C2)c(C)c(C)c1NC(=O)CC(C)(C)C [Compound 030, N-(4-(7-fluoro-1,3,4,5-tetrahydro-2H-benzo[c]azepin-2-yl)-2,3,6-trimethylphenyl)-3,3-dimethylbutanamide]
